The results in this text go back to patent US5053431A, “Derivatives of chrysophanol as topoisomerase II inhibitors” (Sloan-Kettering Institute For Cancer Research, priority 1990, dated 1991).

For experiment [1], the system named is mouse leukemia L1210 cells. As to the kind of experiment: Inhibition of L1210 cell growth. The experiment is classed as cell-based. As for the experimental part:
Preliminary biological data for inhibiting cell growth of murine L1210 leukemic cells and human acute promyelocytic leukemia cells (HL-60) during 72 h of exposure to the compounds are given in Table IV. The potencies for inhibiting [^3 H]TdR incorporation into DNA in HL-60 cells during the initial 30-min period are also given in Table IV. It is interesting to note that 1,8-di-O-methyl derivatives are uniformly devoid of activity against L1210 leukemic cells. […] The B/A ratios allow an indirect estimation of whether or not cytotoxicities exerted by these analogues are primarily due to initial inhibition of DNA synthesis. […] Whether these analogues, like m-AMSA, ellipticine, or anthracyclines, act by inhibiting DNA topoisomerase II remains to be explored. […] Our preliminary experiments indicate that the compounds arrest cells in the S and/or G2 phases of the cell cycle (unpublished results).

Experiment [2] relates to human leukemia HL-60 cells. Nature of the experiment: HL-60 cell growth inhibition (72 h). To be noted: HL-60, 72 h, read-out: ID50, M [HL-60 cell growth (72 h)] (A). Format: cell-based. As for the experimental part: For cell growth inhibition studies, HL-60 cells […]) were grown in RPMI 1640 media at 37° C. in humidified 5% CO2 for 72 h. Viable cells were counted with the trypan blue exclusion method. The fractional inhibitions at four or five concentrations of compounds (in 0.2% DMSO) were analyzed with a median-effect plot (Chou, T.-C., et al., Adv. Enzyme Regul. 22:27 (1984)) by using a computer program. (Chou, J.; Chou, T.-C. Dose-Effect Analyses with Microcomputer. Quantitation of ID50, LD50, Synergism, Antagonism, Low-dose Risk, Receptor-Binding and Enzyme Kinetics; IBM-PC Series, Elsevier-Biosoft, Elsevier Scientific: Cambridge, U.K., (1986)). The median-effect concentration (ID50) was automatically determined for the x intercept of the median-effect plot. Cell growth in the absence of a compound and in the presence of DMSO was used as a control. DMSO (0.2%) alone inhibited cell growth 3.8±1.2% during the 72-h incubation period.

Experiment [3] has as its system [^3 H]TdR incorporation into DNA in HL-60 cells. As to the kind of experiment: Inhibition of [3H]TdR incorporation into DNA in HL-60 cells (initial 30 min). Format: cell-based, human. To be noted: for B/A: ratio of ID50 for TdR incorporation (B) to ID50 for cell growth (A), HL-60; for IC50: HL-60, initial 30 min exposure, read-out: ID50, M (HL-60 TdR into DNA (B)). How it is done: For precursor incorporation studies, each compound at four to six concentrations (0.2% DMSO) was preincubated with HL-60 cells (2.5×10^6 /Ml) for 15 min prior to the addition of [^3 H-methyl]TdR (1 μCi, 0.15 nmol/mL) and was incubated for 30 min. […] The incorporation of radioactivity in DNA in the absence of an analogue in the presence of DMSO was used as a control.

The mark [4] stands for this setting: Table IV, L1210, 72 h exposure, read-out: ID50, M (L1210 cell growth).
[5] abbreviates: Mus musculus, Table IV, L1210, 72 h exposure, read-out: ID50, M (L1210 cell growth).
[6] abbreviates: Mus musculus, L1210, Table I, read-out: ID50 (the source's name).
Where [7] appears, read: Mus musculus, L1210, Table I, read-out: ID50 (μg/mL).
[8] abbreviates: Mus musculus, L1210, Table II, antileukemic activity, read-out: L1210: ID50.
Where [9] appears, read: Table I, read-out: ID50 (the source's name).

Converted amounts (≈) assume the structure as drawn. Read-outs that look alike come from different tables or passages of the source.

With “3-(Bromomethyl)-1(and 8)-Hydroxy-8(and 1)-Methoxy-9,10-anthraquinone [Va]”, the IC50 in experiment [1] (setting [4]) was determined as 8.8 µM; in experiment [2] (0.2% DMSO) it was 7.1 µM. Further, the B/A in experiment [3] is reported as 1.7.
“3-(Dibromomethyl)-1(and 8)-hydroxy-8(and 1)-methoxy-9,10anthraquinone [VIIa]”: the IC50 stood at 4.2e-05 µM in experiment [1] (setting [4]), 0.06 µM in experiment [2] (0.2% DMSO) and 13 µM in experiment [3]. In addition, the B/A in experiment [3] is given as 217.
In the same order, the values of “6-(Dibromomethyl)-1-(and 8)-hydroxy-3,8(and) 1,3)-dimethoxy-9,10-anthraquinone [VIIb]” are 0.001 µM, 0.097 µM, 23 µM and 237.
Turning to `COc1cccc2c1C(=O)c1c(OC)cc(CBr)cc1C2=O` [IIIa, 3-bromomethyl-1,8-dimethoxy-9,10-anthraquinone], the IC50 in experiment [1] (setting [5]) is 9.2 µM; in experiment [2] (Homo sapiens, 0.2% DMSO), 4.4 µM; in experiment [3] (Homo sapiens, 0.5 h), 11 µM. Also, the B/A in experiment [3] was 2.5.
As for `COc1cc(OC)c2c(c1)C(=O)c1cc(CBr)cc(OC)c1C2=O` [IIIb, 3-bromomethyl-1,6,8-trimethoxy-9,10-anthraquinone], the IC50 in experiment [1] (setting [5]) is 0.68 µM; in experiment [2] (Homo sapiens, 0.2% DMSO), 84 µM; in experiment [3] (Homo sapiens, 0.5 h), 12 µM. In addition, in experiment [3], the B/A was found to be 0.14.
For `COc1cccc2c1C(=O)c1c(OC)cc(C)cc1C2=O` [IIa, 1,8-Dimethoxy-3-methyl-9,10-anthraquinone], the IC50 is 28 µM in experiment [1] (setting [5]); 10 µM in experiment [2] (Homo sapiens, 0.2% DMSO); 19 µM in experiment [3] (Homo sapiens, 0.5 h).
Consider `Cc1cc(O)c2c(c1)C(=O)c1cccc(O)c1C2=O` [IIa], for which the IC50 in experiment [1] (setting [6]) is greater than 390 µM; in experiment [1] (setting [7]), greater than 100 µg/mL.
As for `COc1cc(OC)c2c(c1)C(=O)c1cc(C)cc(OC)c1C2=O` [IIb, 1,3,8-Trimethoxy-6-methyl-9,10-anthraquinone], the IC50 in experiment [1] (setting [5]) turned out to be 100 µM; in experiment [2] (Homo sapiens, 0.2% DMSO) it was 49 µM; in experiment [3] (Homo sapiens, 0.5 h), 21 µM.
Regarding `Cc1cc(O)c2c(c1)C(=O)c1cc(O)cc(O)c1C2=O` [IIb], the IC50 in experiment [1] (setting [6]) is greater than 335 µM; in experiment [1] (setting [7]), greater than 100 µg/mL.
Regarding `COc1cccc2c1C(=O)c1c(OC)cc(C(Br)Br)cc1C2=O` [IVa, 3-Dibromomethyl-1,8-dimethoxy-9,10-anthraquinone], the IC50 in experiment [1] (setting [5]) came out at 0.89 µM; in experiment [2] (Homo sapiens, 0.2% DMSO) it was 2.1 µM; in experiment [3] (Homo sapiens, 0.5 h), 9 µM. Moreover, in experiment [3], the B/A is 4.3.
As for `COc1cc(OC)c2c(c1)C(=O)c1cc(C(Br)Br)cc(OC)c1C2=O` [IVb, 6-(Dibromomethyl)-1,3,8-trimethoxy-9,10-anthraquinone], the IC50 in experiment [1] (setting [5]) was 41 µM; in experiment [2] (Homo sapiens, 0.2% DMSO) it was 6 µM; in experiment [3] (Homo sapiens, 0.5 h), 58 µM. Besides, the B/A in experiment [3] stood at 9.7.
On to `CCN(CC)Cc1cc(OC)c2c(c1)C(=O)c1cccc(OC)c1C2=O` [IXa-1, 3-[(Diethylamino)methyl]-1,8-dimethoxy-9,10-anthraquinone], for which the IC50 in experiment [1] (setting [6]) was 128 µM; in experiment [1] (setting [7]), 52.3 µg/mL; in experiment [1] (setting [5]), 130 µM; in experiment [2] (Homo sapiens, 0.2% DMSO), 30 µM; in experiment [3] (Homo sapiens, 0.5 h) it was 19 µM. Also, in experiment [3], the B/A worked out at 6.3.
With `COc1cccc2c1C(=O)c1c(OC)cc(CN(CCO)CCO)cc1C2=O` [IXa-2, 3-[N,N-bis(2-hydroxethyl)amino]methyl-1,8-dimethoxy-9,10-anthraquinone], the IC50 is greater than 49.8 µM in experiment [1] (setting [6]); greater than 21 µg/mL in experiment [1] (setting [7]); greater than 50 µM in experiment [1] (setting [8]); greater than 50 µM in experiment [1] (setting [5]); 490 µM in experiment [2] (Homo sapiens, 0.2% DMSO); 14 µM in experiment [3] (Homo sapiens, 0.5 h). In experiment [3], the B/A was determined as 0.03.
As to `COc1cccc2c1C(=O)c1c(OC)cc(CN(CCCl)CCCl)cc1C2=O` [IXa-3, 3-[N,N-bis(2-chloroethyl)amino]methyl-1,8-dimethoxy-9,10-anthraquinone], the “ID50” value in experiment [1] (Table I) was 5.73 µg/mL (≈ 13.6 µM). Also, the IC50 turned out to be 12.5 µM in experiment [1] (setting [9]), 13 µM in experiment [1] (setting [4]) and 14 µM in experiment [3]. For the same compound, the B/A in experiment [3] is recorded as 7.8.
As for `CNC(=O)OCCN(CCOC(=O)NC)Cc1cc(OC)c2c(c1)C(=O)c1cccc(OC)c1C2=O` [IXa-4], the IC50 in experiment [1] (setting [5]) was determined as 72 µM; in experiment [2] (Homo sapiens, 0.2% DMSO), 9.5 µM; in experiment [3] (Homo sapiens, 0.5 h), 9.4 µM. In addition, the B/A in experiment [3] came out at 0.99.
Take `CCNCc1cc(OC)c2c(c1)C(=O)c1cccc(OC)c1C2=O` [IXa-5, 3-(N-ethylamino)methyl-1,8-dimethoxy-9,10-anthraquinone]: the IC50 was 3.59 µM in experiment [1] (setting [6]); 1.3 µg/mL in experiment [1] (setting [7]); 1.2 µM in experiment [1] (setting [5]); 48 µM in experiment [2] (Homo sapiens, 0.2% DMSO); 29 µM in experiment [3] (Homo sapiens, 0.5 h). Also, the B/A in experiment [3] came to 0.60.
Regarding `COc1cccc2c1C(=O)c1c(OC)cc(CNCCO)cc1C2=O` [IXa-6, 3-[N-(2-hydroxyethyl)amino]methyl-1,8-dimethoxy-9,10-anthraquinone], the IC50 is 142 µM in experiment [1] (setting [6]); 53.7 µg/mL in experiment [1] (setting [7]); 140 µM in experiment [1] (setting [5]); 55 µM in experiment [2] (Homo sapiens, 0.2% DMSO); 46 µM in experiment [3] (Homo sapiens, 0.5 h). In addition, the B/A in experiment [3] was determined as 0.84.
In the case of `CCN(CC)Cc1cc(OC)c2c(c1)C(=O)c1cc(OC)cc(OC)c1C2=O` [IXb-1, 3-(N,N-diethylamino)methyl-1,6,8-trimethoxy-9,10-anthraquinone], the IC50 in experiment [1] (setting [6]) came to 6.91 µM; in experiment [1] (setting [7]), 2.9 µg/mL; in experiment [2] (Homo sapiens, 0.2% DMSO), 7.9 µM; in experiment [3] (Homo sapiens, 0.5 h), 4.2 µM. Moreover, in experiment [3], the B/A is reported as 0.53.
As for `COc1cc(OC)c2c(c1)C(=O)c1cc(CN(CCO)CCO)cc(OC)c1C2=O` [IXb-2, 3-[N,N-bis(2-hydroxethyl)amino]methyl-1,6,8-trimethoxy-9,10-anthraquinone], the IC50 in experiment [1] (setting [6]) was 27.7 µM; in experiment [1] (setting [7]) it was 12.5 µg/mL; in experiment [1] (setting [8]), greater than 27.6 µM; in experiment [1] (setting [5]) it was greater than 27 µM; in experiment [2] (Homo sapiens, 0.2% DMSO), 100 µM; in experiment [3] (Homo sapiens, 0.5 h), 17 µM. In experiment [3], the B/A was 0.17.
On to `COc1cc(OC)c2c(c1)C(=O)c1cc(CN(CCCl)CCCl)cc(OC)c1C2=O` [IXb-3, 3-[N,N-bis(2-chloroethyl)amino]methyl-1,8,6-trimethoxy-9,10-anthraquinone], for which the “ID50” value in experiment [1] (Table I) came to 1.30 µg/mL (≈ 2.87 µM). For the same compound, the IC50 in experiment [1] (setting [9]) amounted to 2.66 µM; in experiment [1] (setting [4]), 2.7 µM; in experiment [2] (0.2% DMSO) it was 2 µM; in experiment [3], 8.9 µM. Besides, the B/A in experiment [3] stood at 4.5.
Consider `CCNCc1cc(OC)c2c(c1)C(=O)c1cc(OC)cc(OC)c1C2=O` [IXb-5, 3-(N-ethylamino)methyl-1,6,8-trimethoxy-9,10-anthraquinone], for which the IC50 in experiment [1] (setting [6]) was found to be 3.67 µM; in experiment [1] (setting [7]), 1.44 µg/mL; in experiment [1] (setting [5]) it was 9.8 µM; in experiment [2] (Homo sapiens, 0.2% DMSO), 17 µM; in experiment [3] (Homo sapiens, 0.5 h), 13 µM. Besides, the B/A in experiment [3] was 0.76.
As to `COc1cc(OC)c2c(c1)C(=O)c1cc(CNCCO)cc(OC)c1C2=O` [IXb-6, 3-[N-(2-hydroxyethyl)amino]methyl-1,6,8-trimethoxy-9,10-anthraquinone], the IC50 in experiment [1] (setting [6]) was determined as 12.5 µM; in experiment [1] (setting [7]), 5.1 µg/mL; in experiment [1] (setting [5]), 17 µM; in experiment [2] (Homo sapiens, 0.2% DMSO), 110 µM; in experiment [3] (Homo sapiens, 0.5 h), 26 µM. For the same compound, in experiment [3], the B/A turned out to be 0.24.
As to `COc1cc(OC)c2c(c1)C(=O)c1cc(CNCCCl)cc(OC)c1C2=O` [IXb-7, 3-[N-(2-chloroethyl)amino]methyl-1,6,8-trimethoxy-9,10-anthraquinone], the IC50 in experiment [1] (Mus musculus, L1210, 72 h, read-out: ID50, M (L1210 cell growth)) was found to be 3.2 µM; in experiment [2] (Homo sapiens) it was 5.8 µM; in experiment [3] (Homo sapiens, 0.5 h), 18 µM. In experiment [3], the B/A was determined as 3.1.
